Results published in patent US6358885B1, “Substituted phenylheterocyclic herbicides” (Mississippi State University, priority 1992, dated 2002).

Assays:
Test in all cases: Test B preemergence/postemergence greenhouse plant response rating 0 to 10
Conditions in all cases: 0 to 10 scale
[1] = system: wild buckwheat; format: in vivo, Polygonum convolvulus
Description: (§1) Seeds of barley (Hordeum vulgare), barnyardgrass (Echinochloa crus-galli), bedstraw (Galium aparine), blackgrass (Alopecurus myosuroides), […] (Bromus secalinus), chickweed (Stellaria media), cocklebur (Xanthium pensylvanicum), corn (Zea mays), cotton (Gossypium hirsutum), crabgrass (Digitaria spp.), giant foxtail (Setaria faberii), lambsquarters (Chenopodium album), morningglory (Ipomoea hederacea), rape (Brassica napus), rice (Oryza sativa), sorghum (Sorghum bicolor), soybean (Glycine max), sugar beet (Beta vulgaris), velvetleaf (Abutilon theophrasti), wheat (Triticum aestivum), wild buckwheat (Polygonum convolvulus), and wild oat (Avena fatua) and purple nutsedge. (Cyperus rotundus) tubers were planted and treated preemergence with test chemicals dissolved in a non-phytotoxic solvent. At the same time, these crop and weed species were also treated with postemergence applications of test chemicals. Plants ranged in height from two to eighteen cm (one to four leaf stage) for postemergence treatments. Treated plants and controls were maintained in a greenhouse for twelve to sixteen days, after which all species were compared to controls and visually evaluated. […] A dash (-) response means no test result.

[2] = system: crabgrass; format: in vivo, Digitaria spp.
Description: as §1

[3] = system: chickweed; format: in vivo, Stellaria media
Description: as §1

[4] = system: wheat; format: in vivo, Triticum aestivum
Description: as §1

[5] = system: blackgrass; format: in vivo, Alopecurus myosuroides
Description: as §1

[6] = system: purple nutsedge; format: in vivo, Cyperus rotundus
Description: as §1

[7] = system: rape; format: in vivo, Brassica napus
Description: as §1

[8] = system: barnyardgrass; format: in vivo, Echinochloa crus-galli
Description: as §1

[9] = system: sugar beet; format: in vivo, Beta vulgaris
Description: as §1

[10] = system: morningglory; format: in vivo, Ipomoea hederacea
Description: as §1

[11] = system: lambsquarters; format: in vivo, Chenopodium album
Description: as §1

[12] = system: cheatgrass; format: in vivo, Bromus secalinus
Description: as §1

[13] = system: velvetleaf; format: in vivo, Abutilon theophrasti
Description: as §1

[14] = system: corn; format: in vivo, Zea mays
Description: as §1

[15] = system: soybean; format: in vivo, Glycine max
Description: as §1

[16] = system: sorghum; format: in vivo, Sorghum bicolor
Description: as §1

[17] = system: barley; format: in vivo, Hordeum vulgare
Description: as §1

[18] = system: cotton; format: in vivo, Gossypium hirsutum
Description: as §1

[19] = system: bedstraw; format: in vivo, Galium aparine
Description: as §1

[20] = system: wild oat; format: in vivo, Avena fatua
Description: as §1

[21] = system: cocklebur; format: in vivo, Xanthium pensylvanicum
Description: as §1

[22] = system: rice; format: in vivo, Oryza sativa
Description: as §1

[23] = system: giant foxtail; format: in vivo, Setaria faberii
Description: as §1

## CC(C#N)Oc1cc(-c2nn3c(c2Cl)CCCC3)c(F)cc1Cl (centres unmarked) [Compound 60]
[1]; POSTEMERGENCE, Rate 10 g/ha
  Plant response rating, Wild buckwheat: 9
[1]; POSTEMERGENCE, Rate 50 g/ha
  Plant response rating, Wild buckwheat: 10
[1]; PREEMERGENCE, Rate 50 g/ha
  Plant response rating, Wild buckwheat: 7
[2]; POSTEMERGENCE, Rate 10 g/ha
  Plant response rating, Crabgrass: 2
[2]; POSTEMERGENCE, Rate 50 g/ha
  Plant response rating, Crabgrass: 2
[2]; PREEMERGENCE, Rate 10 g/ha
  Plant response rating, Crabgrass: 0
[2]; PREEMERGENCE, Rate 50 g/ha
  Plant response rating, Crabgrass: 0
[3]; POSTEMERGENCE, Rate 10 g/ha
  Plant response rating, Chickweed: 3
[3]; POSTEMERGENCE, Rate 50 g/ha
  Plant response rating, Chickweed: 7
[3]; PREEMERGENCE, Rate 50 g/ha
  Plant response rating, Chickweed: 4
[4]; POSTEMERGENCE, Rate 10 g/ha
  Plant response rating, Wheat: 3
[4]; POSTEMERGENCE, Rate 50 g/ha
  Plant response rating, Wheat: 4
[4]; PREEMERGENCE, Rate 50 g/ha
  Plant response rating, Wheat: 2
[5]; POSTEMERGENCE, Rate 10 g/ha
  Plant response rating, Blackgrass: 3
[5]; POSTEMERGENCE, Rate 50 g/ha
  Plant response rating, Blackgrass: 3
[5]; PREEMERGENCE, Rate 10 g/ha
  Plant response rating, Blackgrass: 0
[5]; PREEMERGENCE, Rate 50 g/ha
  Plant response rating, Blackgrass: 0
[6]; POSTEMERGENCE, Rate 10 g/ha
  Plant response rating, Nutsedge: 1
[6]; POSTEMERGENCE, Rate 50 g/ha
  Plant response rating, Nutsedge: 2
[6]; PREEMERGENCE, Rate 50 g/ha
  Plant response rating, Nutsedge: 0
[7]; POSTEMERGENCE, Rate 10 g/ha
  Plant response rating, Rape: 6
[7]; POSTEMERGENCE, Rate 50 g/ha
  Plant response rating, Rape: 10
[7]; PREEMERGENCE, Rate 50 g/ha
  Plant response rating, Rape: 6
[8]; POSTEMERGENCE, Rate 10 g/ha
  Plant response rating, Barnyardgrass: 3
[8]; POSTEMERGENCE, Rate 50 g/ha
  Plant response rating, Barnyardgrass: 4
[8]; PREEMERGENCE, Rate 10 g/ha
  Plant response rating, Barnyardgrass: 0
[8]; PREEMERGENCE, Rate 50 g/ha
  Plant response rating, Barnyardgrass: 0
[9]; POSTEMERGENCE, Rate 10 g/ha
  Plant response rating, Sugar beet: 10
[9]; POSTEMERGENCE, Rate 50 g/ha
  Plant response rating, Sugar beet: 10
[9]; PREEMERGENCE, Rate 50 g/ha
  Plant response rating, Sugar beet: 9
[10]; POSTEMERGENCE, Rate 10 g/ha
  Plant response rating, Morningglory: 7
[10]; POSTEMERGENCE, Rate 50 g/ha
  Plant response rating, Morningglory: 7
[10]; PREEMERGENCE, Rate 50 g/ha
  Plant response rating, Morningglory: 3
[11]; POSTEMERGENCE, Rate 10 g/ha
  Plant response rating, Lambsquarter: 10
[11]; POSTEMERGENCE, Rate 50 g/ha
  Plant response rating, Lambsquarter: 10
[11]; PREEMERGENCE, Rate 50 g/ha
  Plant response rating, Lambsquarter: 9
[12]; POSTEMERGENCE, Rate 10 g/ha
  Plant response rating, Cheatgrass: 3
[12]; POSTEMERGENCE, Rate 50 g/ha
  Plant response rating, Cheatgrass: 3
[12]; PREEMERGENCE, Rate 10 g/ha
  Plant response rating, Cheatgrass: 0
[12]; PREEMERGENCE, Rate 50 g/ha
  Plant response rating, Cheatgrass: 2
[13]; POSTEMERGENCE, Rate 10 g/ha
  Plant response rating, Velvetleaf: 7
[13]; POSTEMERGENCE, Rate 50 g/ha
  Plant response rating, Velvetleaf: 8
[13]; PREEMERGENCE, Rate 50 g/ha
  Plant response rating, Velvetleaf: 6
[14]; POSTEMERGENCE, Rate 10 g/ha
  Plant response rating, Corn: 3
[14]; POSTEMERGENCE, Rate 50 g/ha
  Plant response rating, Corn: 3
[14]; PREEMERGENCE, Rate 50 g/ha
  Plant response rating, Corn: 0
[15]; POSTEMERGENCE, Rate 10 g/ha
  Plant response rating, Soybean: 6
[15]; POSTEMERGENCE, Rate 50 g/ha
  Plant response rating, Soybean: 4
[15]; PREEMERGENCE, Rate 50 g/ha
  Plant response rating, Soybean: 0
[16]; POSTEMERGENCE, Rate 10 g/ha
  Plant response rating, Sorghum: 3
[16]; POSTEMERGENCE, Rate 50 g/ha
  Plant response rating, Sorghum: 3
[16]; PREEMERGENCE, Rate 50 g/ha
  Plant response rating, Sorghum: 2
[17]; POSTEMERGENCE, Rate 10 g/ha
  Plant response rating, Barley: 3
[17]; POSTEMERGENCE, Rate 50 g/ha
  Plant response rating, Barley: 4
[17]; PREEMERGENCE, Rate 10 g/ha
  Plant response rating, Barley: 0
[17]; PREEMERGENCE, Rate 50 g/ha
  Plant response rating, Barley: 0
[18]; POSTEMERGENCE, Rate 10 g/ha
  Plant response rating, Cotton: 9
[18]; POSTEMERGENCE, Rate 50 g/ha
  Plant response rating, Cotton: 10
[18]; PREEMERGENCE, Rate 10 g/ha
  Plant response rating, Cotton: 0
[18]; PREEMERGENCE, Rate 50 g/ha
  Plant response rating, Cotton: 5
[19]; POSTEMERGENCE, Rate 10 g/ha
  Plant response rating, Bedstraw: 7
[19]; POSTEMERGENCE, Rate 50 g/ha
  Plant response rating, Bedstraw: 9
[19]; PREEMERGENCE, Rate 50 g/ha
  Plant response rating, Bedstraw: 6
[20]; POSTEMERGENCE, Rate 10 g/ha
  Plant response rating, Wild oat: 2
[20]; POSTEMERGENCE, Rate 50 g/ha
  Plant response rating, Wild oat: 4
[20]; PREEMERGENCE, Rate 50 g/ha
  Plant response rating, Wild oat: 3
[21]; POSTEMERGENCE, Rate 10 g/ha
  Plant response rating, Cocklebur: 6
[21]; POSTEMERGENCE, Rate 50 g/ha
  Plant response rating, Cocklebur: 8
[21]; PREEMERGENCE, Rate 10 g/ha
  Plant response rating, Cocklebur: 0
[21]; PREEMERGENCE, Rate 50 g/ha
  Plant response rating, Cocklebur: 0
[22]; POSTEMERGENCE, Rate 10 g/ha
  Plant response rating, Rice: 3
[22]; POSTEMERGENCE, Rate 50 g/ha
  Plant response rating, Rice: 4
[22]; PREEMERGENCE, Rate 50 g/ha
  Plant response rating, Rice: 1
[23]; POSTEMERGENCE, Rate 10 g/ha
  Plant response rating, Giant foxtail: 3
[23]; POSTEMERGENCE, Rate 50 g/ha
  Plant response rating, Giant foxtail: 4
[23]; PREEMERGENCE, Rate 10 g/ha
  Plant response rating, Giant foxtail: 0
[23]; PREEMERGENCE, Rate 50 g/ha
  Plant response rating, Giant foxtail: 2
